How the values were obtained:
[1] = molecular target: Dual specificity tyrosine-phosphorylation-regulated kinase 1A (Homo sapiens, UniProt Q13627)
[2] = molecular target: Dual specificity protein kinase CLK3 (Homo sapiens, UniProt P49761); type: cell-based, Sf9
[3] = molecular target: Cyclin-dependent kinase 5/CDK5 activator 1 (Homo sapiens, UniProt Q00535); type: cell-based, Sf9
[4] = molecular target: Casein kinase I isoform epsilon (Homo sapiens, UniProt P49674)
[5] = molecular target: Glycogen synthase kinase-3 beta (Homo sapiens, UniProt P49841); type: cell-based, Sf9
Chain of Glycogen synthase kinase-3 beta (P49841 whole entry): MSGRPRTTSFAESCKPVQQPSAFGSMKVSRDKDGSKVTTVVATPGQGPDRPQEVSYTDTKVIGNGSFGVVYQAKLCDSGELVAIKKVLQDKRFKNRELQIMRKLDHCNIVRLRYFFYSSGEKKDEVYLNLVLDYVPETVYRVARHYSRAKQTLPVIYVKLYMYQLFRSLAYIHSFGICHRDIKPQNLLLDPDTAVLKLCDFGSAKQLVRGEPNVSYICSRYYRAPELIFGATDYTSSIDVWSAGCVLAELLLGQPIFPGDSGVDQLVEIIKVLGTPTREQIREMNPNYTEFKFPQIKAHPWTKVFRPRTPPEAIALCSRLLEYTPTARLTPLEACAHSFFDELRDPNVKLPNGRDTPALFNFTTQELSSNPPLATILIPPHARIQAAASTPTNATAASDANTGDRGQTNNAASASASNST

[6] = molecular target: Dual specificity protein kinase CLK4 (Homo sapiens, UniProt Q9HAZ1)
Chain of Dual specificity protein kinase CLK4 (Q9HAZ1 whole entry): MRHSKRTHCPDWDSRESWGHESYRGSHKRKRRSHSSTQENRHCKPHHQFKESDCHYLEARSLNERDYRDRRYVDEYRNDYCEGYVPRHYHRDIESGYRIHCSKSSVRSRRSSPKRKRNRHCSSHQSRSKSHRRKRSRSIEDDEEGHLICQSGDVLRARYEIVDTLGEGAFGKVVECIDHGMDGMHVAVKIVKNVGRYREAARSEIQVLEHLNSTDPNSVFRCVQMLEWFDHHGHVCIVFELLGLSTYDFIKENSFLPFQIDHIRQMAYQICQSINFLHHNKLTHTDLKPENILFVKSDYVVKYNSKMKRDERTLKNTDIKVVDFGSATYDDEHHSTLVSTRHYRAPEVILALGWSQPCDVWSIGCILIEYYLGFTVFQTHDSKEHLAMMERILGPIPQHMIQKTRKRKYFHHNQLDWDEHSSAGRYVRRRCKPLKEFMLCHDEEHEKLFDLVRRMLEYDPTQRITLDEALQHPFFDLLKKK

[7] = molecular target: T1, Dual specificity tyrosine-phosphorylation-regulated kinase 4 (Homo sapiens, UniProt Q9NR20)
T1 sequence (Q9NR20 whole entry): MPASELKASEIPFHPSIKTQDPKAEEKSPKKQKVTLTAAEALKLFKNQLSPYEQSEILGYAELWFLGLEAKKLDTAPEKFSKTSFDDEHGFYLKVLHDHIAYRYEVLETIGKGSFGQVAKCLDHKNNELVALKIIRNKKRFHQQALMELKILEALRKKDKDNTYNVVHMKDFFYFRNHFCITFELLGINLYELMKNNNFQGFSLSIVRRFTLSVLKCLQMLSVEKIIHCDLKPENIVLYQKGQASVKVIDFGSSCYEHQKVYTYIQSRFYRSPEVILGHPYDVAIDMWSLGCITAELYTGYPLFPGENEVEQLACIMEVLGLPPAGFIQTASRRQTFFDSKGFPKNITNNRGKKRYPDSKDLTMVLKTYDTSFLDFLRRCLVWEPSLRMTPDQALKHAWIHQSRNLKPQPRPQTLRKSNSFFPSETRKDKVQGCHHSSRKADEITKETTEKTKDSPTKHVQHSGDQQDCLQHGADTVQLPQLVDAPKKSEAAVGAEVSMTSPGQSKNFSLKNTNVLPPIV

[8] = molecular target: T2, Dual specificity tyrosine-phosphorylation-regulated kinase 2 (Homo sapiens, UniProt Q92630)
T2 sequence (Q92630 whole entry): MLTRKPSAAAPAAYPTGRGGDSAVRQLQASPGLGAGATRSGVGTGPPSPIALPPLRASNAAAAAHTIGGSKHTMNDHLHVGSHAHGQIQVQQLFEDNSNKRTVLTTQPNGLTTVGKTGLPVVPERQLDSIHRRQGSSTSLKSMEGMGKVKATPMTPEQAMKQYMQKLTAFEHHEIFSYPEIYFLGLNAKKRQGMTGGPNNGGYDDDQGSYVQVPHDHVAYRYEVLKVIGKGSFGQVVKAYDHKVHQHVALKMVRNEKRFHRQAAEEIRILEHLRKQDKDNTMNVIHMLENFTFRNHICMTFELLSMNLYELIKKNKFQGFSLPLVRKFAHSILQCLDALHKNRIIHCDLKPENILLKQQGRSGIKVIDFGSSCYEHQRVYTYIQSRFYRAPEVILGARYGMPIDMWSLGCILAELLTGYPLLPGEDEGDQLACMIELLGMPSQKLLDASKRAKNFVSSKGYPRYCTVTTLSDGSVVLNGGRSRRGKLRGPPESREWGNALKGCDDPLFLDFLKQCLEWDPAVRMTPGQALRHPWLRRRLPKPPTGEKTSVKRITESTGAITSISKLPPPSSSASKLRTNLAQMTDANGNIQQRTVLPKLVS

[9] = molecular target: T3, Dual specificity tyrosine-phosphorylation-regulated kinase 3 (Homo sapiens, UniProt O43781)
T3 sequence (O43781 whole entry): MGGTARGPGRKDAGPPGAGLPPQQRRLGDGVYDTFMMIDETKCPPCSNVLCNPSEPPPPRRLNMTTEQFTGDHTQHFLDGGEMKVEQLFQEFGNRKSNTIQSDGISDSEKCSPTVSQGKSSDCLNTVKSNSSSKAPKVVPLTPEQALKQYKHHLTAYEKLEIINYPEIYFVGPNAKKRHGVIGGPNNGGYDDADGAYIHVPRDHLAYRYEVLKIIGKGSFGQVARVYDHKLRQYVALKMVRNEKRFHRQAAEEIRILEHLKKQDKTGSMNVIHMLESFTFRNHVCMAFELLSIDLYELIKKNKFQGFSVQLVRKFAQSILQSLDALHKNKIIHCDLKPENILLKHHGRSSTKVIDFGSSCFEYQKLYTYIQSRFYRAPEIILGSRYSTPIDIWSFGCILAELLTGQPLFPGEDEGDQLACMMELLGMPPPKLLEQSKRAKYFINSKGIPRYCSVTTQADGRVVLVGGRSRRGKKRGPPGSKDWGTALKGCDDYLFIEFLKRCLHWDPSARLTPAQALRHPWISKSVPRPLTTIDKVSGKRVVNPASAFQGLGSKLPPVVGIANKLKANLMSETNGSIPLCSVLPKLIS

[10] = molecular target: Dual specificity protein kinase CLK2 (Homo sapiens, UniProt P49760)
Chain of Dual specificity protein kinase CLK2 (P49760 whole entry): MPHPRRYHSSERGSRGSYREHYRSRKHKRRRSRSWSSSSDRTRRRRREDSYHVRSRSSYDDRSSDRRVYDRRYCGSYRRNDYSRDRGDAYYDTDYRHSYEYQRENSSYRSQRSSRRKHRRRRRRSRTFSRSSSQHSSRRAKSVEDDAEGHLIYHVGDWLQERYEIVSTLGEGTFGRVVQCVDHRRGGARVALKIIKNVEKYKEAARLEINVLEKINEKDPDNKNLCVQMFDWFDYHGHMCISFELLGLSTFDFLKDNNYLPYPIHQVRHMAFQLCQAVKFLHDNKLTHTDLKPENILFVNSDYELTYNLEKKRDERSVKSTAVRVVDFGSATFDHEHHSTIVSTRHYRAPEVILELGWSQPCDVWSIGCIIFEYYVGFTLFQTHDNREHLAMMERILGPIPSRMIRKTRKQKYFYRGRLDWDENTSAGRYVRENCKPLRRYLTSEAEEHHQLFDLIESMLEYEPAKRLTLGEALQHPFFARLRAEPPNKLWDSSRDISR

[11] = molecular target: Dual specificity protein kinase CLK1 (Homo sapiens, UniProt P49759); type: cell-based, Sf9
Chain of Dual specificity protein kinase CLK1 (P49759 whole entry): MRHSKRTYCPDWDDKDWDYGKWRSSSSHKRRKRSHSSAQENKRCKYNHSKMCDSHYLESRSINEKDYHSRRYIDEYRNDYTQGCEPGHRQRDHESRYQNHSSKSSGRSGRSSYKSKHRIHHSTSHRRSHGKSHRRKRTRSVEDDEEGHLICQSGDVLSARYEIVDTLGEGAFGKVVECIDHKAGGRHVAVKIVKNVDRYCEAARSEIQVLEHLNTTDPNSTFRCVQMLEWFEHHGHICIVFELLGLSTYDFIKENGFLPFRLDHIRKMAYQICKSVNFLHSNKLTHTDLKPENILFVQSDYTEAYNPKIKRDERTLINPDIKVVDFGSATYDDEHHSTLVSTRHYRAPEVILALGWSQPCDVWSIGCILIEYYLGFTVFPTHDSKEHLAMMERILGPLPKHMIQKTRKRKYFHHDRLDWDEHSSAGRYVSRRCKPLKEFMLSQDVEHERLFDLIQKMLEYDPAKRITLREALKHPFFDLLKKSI

Chain of Dual specificity protein kinase CLK3 (P49761 whole entry): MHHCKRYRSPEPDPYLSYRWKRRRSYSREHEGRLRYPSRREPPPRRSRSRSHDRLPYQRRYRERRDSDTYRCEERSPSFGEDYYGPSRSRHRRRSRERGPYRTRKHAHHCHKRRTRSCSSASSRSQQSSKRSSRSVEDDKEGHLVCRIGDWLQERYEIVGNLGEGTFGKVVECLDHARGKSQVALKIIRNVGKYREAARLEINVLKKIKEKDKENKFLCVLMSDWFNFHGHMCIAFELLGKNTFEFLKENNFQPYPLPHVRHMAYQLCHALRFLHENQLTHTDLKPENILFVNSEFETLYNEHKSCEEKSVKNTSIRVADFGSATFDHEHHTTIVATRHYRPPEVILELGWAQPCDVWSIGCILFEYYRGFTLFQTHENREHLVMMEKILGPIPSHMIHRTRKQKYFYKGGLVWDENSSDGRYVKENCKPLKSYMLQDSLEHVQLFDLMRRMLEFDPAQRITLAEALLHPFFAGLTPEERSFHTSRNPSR
Chain of Cyclin-dependent kinase 5/CDK5 activator 1 (Q00535 whole entry, canonical isoform): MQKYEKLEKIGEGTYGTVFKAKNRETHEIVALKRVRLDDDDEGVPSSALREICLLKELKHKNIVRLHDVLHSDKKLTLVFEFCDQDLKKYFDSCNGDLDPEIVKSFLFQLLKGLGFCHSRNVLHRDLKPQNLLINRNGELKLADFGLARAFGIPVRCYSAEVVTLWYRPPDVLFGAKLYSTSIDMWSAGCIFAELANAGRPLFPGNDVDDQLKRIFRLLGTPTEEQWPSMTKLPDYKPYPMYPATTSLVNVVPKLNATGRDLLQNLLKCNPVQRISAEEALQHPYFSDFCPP
Chain of Cyclin-dependent kinase 5/CDK5 activator 1 (Q15078 whole entry, further chain, canonical isoform): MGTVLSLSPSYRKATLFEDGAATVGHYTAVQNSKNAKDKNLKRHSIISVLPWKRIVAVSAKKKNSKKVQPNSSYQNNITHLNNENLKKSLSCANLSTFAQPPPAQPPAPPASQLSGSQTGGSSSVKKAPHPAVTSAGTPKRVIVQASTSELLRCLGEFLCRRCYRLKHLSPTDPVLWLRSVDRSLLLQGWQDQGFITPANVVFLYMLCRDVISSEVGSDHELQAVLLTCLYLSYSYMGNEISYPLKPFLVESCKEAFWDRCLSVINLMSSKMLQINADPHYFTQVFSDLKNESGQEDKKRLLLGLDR
Chain of Casein kinase I isoform epsilon (P49674 whole entry, canonical isoform): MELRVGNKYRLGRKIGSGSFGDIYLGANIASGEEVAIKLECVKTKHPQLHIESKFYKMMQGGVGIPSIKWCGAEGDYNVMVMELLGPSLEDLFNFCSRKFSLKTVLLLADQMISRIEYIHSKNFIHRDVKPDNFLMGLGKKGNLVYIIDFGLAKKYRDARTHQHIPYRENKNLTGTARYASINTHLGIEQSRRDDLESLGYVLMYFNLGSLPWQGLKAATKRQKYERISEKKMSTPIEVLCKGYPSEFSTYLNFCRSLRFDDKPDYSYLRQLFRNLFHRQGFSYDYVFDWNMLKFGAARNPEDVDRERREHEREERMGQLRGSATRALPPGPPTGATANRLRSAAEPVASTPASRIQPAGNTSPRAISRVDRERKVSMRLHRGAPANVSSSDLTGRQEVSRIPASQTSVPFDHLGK

SMILES	IC50 [1] [nM]	IC50 [2] [nM]	IC50 [3] [nM]	IC50 [4] [nM]	IC50 [5] [nM]	IC50 [6] [nM]	IC50 [7] [nM]	IC50 [8] [nM]	IC50 [9] [nM]	IC50 [10] [nM]	IC50 [11] [nM]
Cn1ncc2cc(/C=C3\N=C(NC45CC6CC(CC(C6)C4)C5)NC3=O)ccc21	–	2220	> 10000	> 10000	> 10000	125	1630	363	307	4000	142
O=C1NC(NC2CCCCCC2)=N/C1=C\c1ccc2nnsc2c1	–	> 10000	> 10000	> 10000	> 10000	172	> 10000	> 10000	–	2830	270
O=C1NC(NC2CCCCC2)=N/C1=C\c1ccc2[nH]cnc2c1	–	1910	> 10000	> 10000	> 10000	37	1860	3280	–	1370	883
O=C1NC(NC2CCCCC2)=N/C1=C\c1ccc2[nH]ncc2c1	263	794	> 10000	> 10000	> 10000	–	> 10000	–	–	2350	541
O=C1NC(Nc2ccccc2)=N/C1=C\c1ccc2ncsc2c1	–	698	> 10000	> 10000	2220	5	–	–	710	113	13
O=C1NC(NC2CCCCCC2)=N/C1=C\c1ccc2c(c1)CCO2	–	> 10000	> 10000	> 10000	> 10000	9	4890	> 10000	4170	1460	24
O=C1NC(NC2CC3(CCC3)C2)=N/C1=C\c1ccc2ncsc2c1	–	212	> 10000	> 10000	4570	–	944	1080	873	183	17
O=C1NC(NC2CCCCC2)=N/C1=C\c1ccc2nnsc2c1	–	8820	> 10000	–	> 10000	392	> 10000	> 10000	> 10000	5580	852
Cn1cc2cc(/C=C3\N=C(NC4CCCCCC4)NC3=O)ccc2n1	–	1410	> 10000	> 10000	> 10000	55	3020	1500	1030	2180	67
CN1CC[C@](C)(NC2=N/C(=C\c3ccc4ncsc4c3)C(=O)N2)C1=O (stereo in doubt)	–	927	> 10000	> 10000	> 10000	–	1680	1720	1480	450	125
O=C1NC(NC2CCCCC2)=N/C1=C\c1ccc2ncsc2c1	–	787	6710	9750	7060	12	663	627	482	–	21
C[C@@H](NC1=N/C(=C\c2ccc3ncsc3c2)C(=O)N1)C1CCCCC1	–	3020	> 10000	> 10000	> 10000	36	6000	3610	–	304	44
O=C1NC(NCc2ccccc2OC(F)(F)F)=N/C1=C\c1ccc2ncsc2c1	–	2870	> 10000	–	> 10000	37	> 10000	> 10000	> 10000	124	34
CN1CCN(c2cnc(NC3=N/C(=C\c4ccc5ncsc5c4)C(=O)N3)cn2)CC1	–	2130	> 10000	> 10000	4120	29	1130	798	–	121	55

Continued, values first:

IC50 [1] [nM]	IC50 [2] [nM]	IC50 [3] [nM]	IC50 [4] [nM]	IC50 [5] [nM]	IC50 [6] [nM]	IC50 [7] [nM]	IC50 [8] [nM]	IC50 [9] [nM]	IC50 [10] [nM]	IC50 [11] [nM]	SMILES
3	920	> 10000	> 10000	6030	3	699	513	302	20	–	COC(=O)[C@@H](NC1=N/C(=C\c2ccc3ncsc3c2)C(=O)N1)C(C)O (stereo partly specified)
–	211	> 10000	> 10000	3600	5	1380	125	–	121	17	CC(C)C[C@H](COC1CC1)NC1=N/C(=C\c2ccc3ncsc3c2)C(=O)N1
–	> 10000	> 10000	> 10000	> 10000	8170	–	> 10000	> 10000	> 10000	> 10000	O=C1NC(NC2CCCCCC2)=N/C1=C\c1ccc2scnc2c1
–	800	–	–	1200	16	–	–	120	35	23	CN1CCN(c2ccc(NC3=N/C(=C\c4ccc5c(c4)OCO5)C(=O)N3)cc2)CC1
–	5700	> 10000	> 10000	5190	86	2670	946	5430	2230	220	CC(C)C[C@H](COCc1ccccc1)NC1=N/C(=C\c2ccc3ncsc3c2)C(=O)N1
–	> 10000	> 10000	> 10000	> 10000	7160	–	> 10000	–	> 10000	> 10000	O=C1NC(NC2CCCCC2)=N/C1=C\c1ccc2scnc2c1
–	914	> 10000	> 10000	8360	–	538	549	531	114	17	C[C@@H]1CCCC[C@H]1NC1=N/C(=C\c2ccc3ncsc3c2)C(=O)N1 (racemic)
–	413	> 10000	> 10000	2680	4	987	145	–	110	13	CCOC[C@@H](CC(C)C)NC1=N/C(=C\c2ccc3ncsc3c2)C(=O)N1
–	403	> 10000	> 10000	1560	–	927	433	657	27	9	CC(C)C[C@H](CF)NC1=N/C(=C\c2ccc3ncsc3c2)C(=O)N1

Reference: ChEMBL document CHEMBL5360622, “Leucettinibs, a Class of DYRK/CLK Kinase Inhibitors Inspired by the Marine Sponge Natural Product Leucettamine B” (J Med Chem, 2023)
